From US8993001B2, “Methods and compositions for treating feline hyperthyroidism” (Hill's Pet Nutrition, Inc., priority 2006, dated 2015)

Tests used:
[1] = system: cats diagnosed with hyperthyroidism; test: Serum total T4 in hyperthyroid cats, six-week study (Example 1); format: in vivo, cat
Protocol: A group of five cats diagnosed with hyperthyroidism was fed food B for six weeks. Another five cats diagnosed with hyperthyroidism were given 2.5 mg methimazole orally once a day for six weeks while they were fed food B. Eight cats diagnosed with hyperthyroidism were given 2.5 mg methimazole orally once a day for six weeks while they were fed a commercially available cat food. The thyroid hormone profiles and serum chemistries of all cats were measured at zero, two, four, and six weeks.

[2] = Serum creatinine in hyperthyroid cats, six-week study (Example 1); format: in vivo, cat
Protocol: Food B1 and food B2 were mixed in a 1:1 ratio, thus resulting in food B. A group of five cats diagnosed with hyperthyroidism was fed food B for six weeks. Another five cats diagnosed with hyperthyroidism were given 2.5 mg methimazole orally once a day for six weeks while they were fed food B. Eight cats diagnosed with hyperthyroidism were given 2.5 mg methimazole orally once a day for six weeks while they were fed a commercially available cat food. The thyroid hormone profiles and serum chemistries of all cats were measured at zero, two, four, and six weeks.

[3] = cats diagnosed with hyperthyroidism, six weeks, methimazole 2.5 mg orally once a day where given

Cn1cc[nH]c1=S [Methimazole, methimazole]
total T4 concentration relative to the normal total T4 concentration range ([1]; after six weeks): did not reach the normal total T4 concentration range
Change in Serum Total T4 Levels [1, 3]: -20.3 nmol/L
serum creatinine concentration relative to the normal creatinine concentration range ([2]; after six weeks, normal range 0.8-1.8 mg/dL): a bit higher than the 0.8-1.8 mg/dL normal creatinine concentration range
Change in Serum Creatinine Levels [2, 3]: +0.46 mg/dL
